Experimental findings from ChEMBL document CHEMBL1201862, “PubChem BioAssay data set” (2004) are described below.

Some test systems named below: TK-10; HOP-62; RXF 393; COLO 205; 786-0; NCI-H460; K562; SK-MEL-28; EKVX; HT-29; MDA-MB-435; RPMI-8226; NCI-H522; MOLT-4; OVCAR-8; HCC 2998; A549; DU-145; OVCAR-3; LOX IMVI.
Holding throughout (assay): inhibition of tumour cell growth, NCI panel, 48 h

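Step 1: Grow cells in 96-well plates. Step 2: Expose to compound for 48 hours at 5 concentrations. Step 3: Interpolate endpoints linearly; if unreached, use highest concentration. At the GI50, growth is halved.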 Activity calls are given as the source filed them. Cut-off read from the data, not from the text of the source: active = GI50 up to about 1.1 µM and inactive = higher.

For `COc1ccc(CC2C(=O)NC(C)C(=O)N(C)C3C(=O)N(C)C(Cc4ccc(O)c(c4)Oc4ccc(cc4)C3O)C(=O)NC(C)C(=O)NC(C)C(=O)N2C)cc1` (stereo not given), the GI50 in the assay on TK-10 was 0.336 µM (active); in the assay with HOP-62 it was 0.0284 µM (active); in the assay with RXF 393 it was 0.0396 µM (active); with COLO 205, 0.0206 µM (active); in the assay on 786-0, 0.015 µM (active); in the assay with NCI-H460 it was 0.0167 µM (active). For the same compound, the GI50 was 0.0179 µM (active) with K562; 0.00223 µM (active) in the assay with SK-MEL-28; 0.0261 µM (active) in the assay on EKVX; 0.0178 µM (active) in the assay with HT-29; < 0.01 µM (active) in the assay with MDA-MB-435; 0.014 µM (active) in the assay with RPMI-8226. For the same compound, the GI50 was 0.0125 µM (active) with NCI-H522; 0.0162 µM (active) in the assay on MOLT-4; 0.021 µM (active) in the assay with OVCAR-8; 0.0391 µM (active) with HCC 2998; 0.0353 µM (active) in the assay on A549; < 0.01 µM (active) in the assay on DU-145. For the same compound, the values for the GI50 in the assay with OVCAR-3 and in the assay with LOX IMVI were 0.0113 µM (active) and 0.00225 µM (active), respectively.

For the compound `COc1cc(Nc2nc3c(N)cc(C(F)(F)F)cc3nc2-c2ccccc2)cc(OC)c1OC`, the GI50 with TK-10 was 29.2 µM (inactive); with HOP-62, 26.3 µM (inactive); in the assay on RXF 393 it was 1.98 µM (inactive); in the assay on COLO 205 it was 99.3 µM (inactive); with 786-0, 24.3 µM (inactive); in the assay on NCI-H460 it was 37.2 µM (inactive). In addition, the GI50 in the assay on K562 was > 100 µM (inactive); with SK-MEL-28, 57 µM (inactive); with EKVX, > 100 µM (inactive); with HT-29, > 92.5 µM (inactive); with MDA-MB-435, > 69.2 µM (inactive); in the assay on RPMI-8226, > 100 µM (inactive). For the same compound, the GI50 in the assay with NCI-H522 was 28.4 µM (inactive); in the assay with MOLT-4 it was > 100 µM (inactive); in the assay with OVCAR-8 it was 24.5 µM (inactive); with HCC 2998, > 100 µM (inactive); in the assay with A549, 49.5 µM (inactive); in the assay with DU-145, > 100 µM (inactive). Besides, the GI50 in the assay on OVCAR-3 was 57.1 µM (inactive); with LOX IMVI it was 72.1 µM (inactive).

Consider `O=[N+]([O-])/C=C/COCc1cc2c(cc1Br)OCO2`, for which the GI50 with TK-10 is 17.4 µM (inactive); in the assay on HOP-62 it was 20.1 µM (inactive); in the assay on RXF 393 it was 16.7 µM (inactive); with COLO 205, 23.1 µM (inactive); with 786-0 it was 13.8 µM (inactive); in the assay with NCI-H460, 29.9 µM (inactive). In addition, the GI50 is 58.2 µM (inactive) in the assay with K562; 11.6 µM (inactive) in the assay on SK-MEL-28; 20.1 µM (inactive) with EKVX; 20.8 µM (inactive) in the assay with HT-29; 13.9 µM (inactive) in the assay on MDA-MB-435; 39.5 µM (inactive) in the assay on RPMI-8226. The GI50 is 22 µM (inactive) with NCI-H522; 48.3 µM (inactive) in the assay with MOLT-4; 31.9 µM (inactive) with OVCAR-8; 16.7 µM (inactive) in the assay with HCC 2998; 21.7 µM (inactive) in the assay on A549; 18.9 µM (inactive) in the assay with DU-145. The values for the GI50 in the assay on OVCAR-3 and with LOX IMVI were 16.4 µM (inactive) and 33.8 µM (inactive), respectively.

For the compound `C=CCOC1=C(OC(C)=O)C(=O)OC1C1COC(C)(C)O1` (stereo not given), the GI50 is 67 µM (inactive) in the assay on TK-10; 29.4 µM (inactive) in the assay with HOP-62; 26.3 µM (inactive) in the assay with RXF 393; 29.6 µM (inactive) in the assay with COLO 205; 32.1 µM (inactive) with 786-0; > 62.5 µM (inactive) with NCI-H460. The GI50 in the assay on K562 is 23.6 µM (inactive); in the assay on SK-MEL-28, 17.3 µM (inactive); with EKVX, 27.5 µM (inactive); in the assay with HT-29, 30.1 µM (inactive); in the assay on MDA-MB-435, 34.3 µM (inactive); with RPMI-8226, 31.8 µM (inactive). Further, the GI50 is 17.5 µM (inactive) with NCI-H522; 18.4 µM (inactive) in the assay with MOLT-4; 28.6 µM (inactive) in the assay with OVCAR-8; 36.4 µM (inactive) with HCC 2998; > 73.5 µM (inactive) in the assay with A549; > 92.9 µM (inactive) in the assay on DU-145. Further, the GI50 with OVCAR-3 is 17.5 µM (inactive); in the assay on LOX IMVI, 18.1 µM (inactive).

As for `NC1N=C(c2ccc(Cl)cc2)C2=C(N1)c1ccccc1CC2` (stereo not given), the GI50 was 48.2 µM (inactive) in the assay on TK-10; > 40.6 µM (inactive) with HOP-62; 7.96 µM (inactive) in the assay on RXF 393; 33.9 µM (inactive) in the assay with COLO 205; 13.2 µM (inactive) in the assay on 786-0; 8.51 µM (inactive) with NCI-H460. Also, the GI50 in the assay on K562 was 3.48 µM (inactive); in the assay with SK-MEL-28 it was 64.7 µM (inactive); in the assay with EKVX, 14.2 µM (inactive); in the assay on HT-29, 3.16 µM (inactive); with MDA-MB-435, 2.62 µM (inactive); with RPMI-8226 it was 2.66 µM (inactive). The GI50 with NCI-H522 was 4.07 µM (inactive); in the assay on MOLT-4, 3.17 µM (inactive); in the assay on OVCAR-8, 25.6 µM (inactive); in the assay on HCC 2998, 0.156 µM (active); in the assay on A549, 20.3 µM (inactive); in the assay on DU-145, 52.4 µM (inactive). Besides, the GI50 is 16.7 µM (inactive) in the assay with OVCAR-3 and 4.13 µM (inactive) in the assay on LOX IMVI.

Take `CC1=CC(O)C(C(O)(C(F)(F)F)C(F)(F)F)C(C)(C)C1` (stereo not given): the GI50 in the assay on TK-10 was > 10 µM (inactive); in the assay on HOP-62 it was > 10 µM (inactive); with RXF 393 it was > 10 µM (inactive); with COLO 205, > 10 µM (inactive); with 786-0, < 0.001 µM (active); in the assay on NCI-H460, > 10 µM (inactive). The GI50 is > 10 µM (inactive) in the assay on K562; > 10 µM (inactive) with SK-MEL-28; > 10 µM (inactive) with EKVX; > 10 µM (inactive) with HT-29; < 0.001 µM (active) with MDA-MB-435; > 10 µM (inactive) with RPMI-8226. Besides, the GI50 with NCI-H522, in the assay with MOLT-4, in the assay with OVCAR-8, with HCC 2998, in the assay on A549 and in the assay with DU-145 was > 10 µM (inactive) throughout. Further, the GI50 in the assay with OVCAR-3 and in the assay on LOX IMVI was > 10 µM (inactive) throughout.

Turning to `Cc1cccc(/N=N/c2ccc(O)c(CN(C)C)c2)c1`, the GI50 with TK-10 was 22.9 µM (inactive); in the assay with HOP-62, 11.1 µM (inactive); in the assay on RXF 393, 29 µM (inactive); in the assay on COLO 205 it was 13.2 µM (inactive); in the assay with 786-0, 18.9 µM (inactive); with NCI-H460 it was 16.7 µM (inactive). For the same compound, the GI50 in the assay on K562 was 3.33 µM (inactive); in the assay with SK-MEL-28, 19.2 µM (inactive); with EKVX it was 20.3 µM (inactive); in the assay on HT-29, 17.5 µM (inactive); in the assay on MDA-MB-435 it was 15.2 µM (inactive); in the assay with RPMI-8226 it was 32 µM (inactive). Further, the GI50 in the assay with NCI-H522 was 10.5 µM (inactive); in the assay with MOLT-4, 20 µM (inactive); with OVCAR-8, 21.3 µM (inactive); in the assay with HCC 2998 it was 16.4 µM (inactive); in the assay on A549, 32.4 µM (inactive); in the assay with DU-145, > 10 µM (inactive). Besides, the GI50 in the assay on OVCAR-3 was 17.2 µM (inactive); with LOX IMVI, 5.41 µM (inactive).

Regarding `O=C(CC(=O)Nc1ccccc1Cl)NNC(Sc1ccccc1)c1cc(/N=N/c2ccc(Br)cc2)ccc1O` (stereo not given), the GI50 was 1.69 µM (inactive) in the assay with TK-10; 2.56 µM (inactive) in the assay with HOP-62; 1.53 µM (inactive) in the assay with RXF 393; 4.35 µM (inactive) in the assay with COLO 205; 0.653 µM (active) in the assay with 786-0; 0.625 µM (active) in the assay on NCI-H460. Besides, the GI50 is 2.31 µM (inactive) in the assay with K562; 2.69 µM (inactive) in the assay with SK-MEL-28; 3.29 µM (inactive) with EKVX; > 10 µM (inactive) in the assay with HT-29; 2.06 µM (inactive) with MDA-MB-435; 1.23 µM (inactive) in the assay on RPMI-8226. Besides, the GI50 with NCI-H522 is 4.07 µM (inactive); with MOLT-4, 0.321 µM (active); with OVCAR-8 it was 0.598 µM (active); with HCC 2998 it was 2.81 µM (inactive); in the assay with A549, 3.08 µM (inactive); in the assay with DU-145 it was 2.28 µM (inactive). Further, the GI50 with OVCAR-3 was 0.404 µM (active); in the assay with LOX IMVI it was 0.927 µM (active).

For the compound `CCCCCCCCCCCCCCCCCCNc1ccn(C2OC(COP(=O)(O)OCC3OC(n4cc(C)c(=O)[nH]c4=O)CC3F)C(O)C2O)c(=O)n1` (stereo not given), the GI50 in the assay with TK-10 was 3.08 µM (inactive); with HOP-62, 9.75 µM (inactive); in the assay on RXF 393 it was 1.67 µM (inactive); in the assay on COLO 205, 3.34 µM (inactive); with 786-0, 4.06 µM (inactive); with NCI-H460 it was 7.41 µM (inactive). Further, the GI50 is 8.55 µM (inactive) in the assay on K562; 8.87 µM (inactive) with SK-MEL-28; 10.3 µM (inactive) in the assay with EKVX; 7.69 µM (inactive) in the assay with HT-29; 7.91 µM (inactive) with MDA-MB-435; 3.52 µM (inactive) with RPMI-8226. Also, the GI50 in the assay with NCI-H522 was 4.29 µM (inactive); in the assay on MOLT-4 it was 3.13 µM (inactive); with OVCAR-8, 8.51 µM (inactive); in the assay with HCC 2998 it was 5.7 µM (inactive); in the assay with A549 it was 11.2 µM (inactive); in the assay on DU-145, 11.4 µM (inactive). Moreover, the GI50 in the assay on OVCAR-3 was 7.24 µM (inactive); in the assay on LOX IMVI, 7.59 µM (inactive).

For `C1CCC(CC2CCC(NC3=NCCO3)CC2)CC1` (stereo not given), the GI50 in the assay on TK-10 is 15.3 µM (inactive); in the assay on HOP-62 it was 20.6 µM (inactive); with RXF 393, 18.3 µM (inactive); in the assay on COLO 205 it was 14.2 µM (inactive); in the assay on 786-0, 15.2 µM (inactive); with NCI-H460 it was 20.2 µM (inactive). In addition, the GI50 in the assay with K562 was 14 µM (inactive); in the assay with SK-MEL-28, 18.1 µM (inactive); in the assay with EKVX it was 22.1 µM (inactive); in the assay on HT-29 it was 3.93 µM (inactive); with MDA-MB-435, 17.4 µM (inactive); in the assay on RPMI-8226, 26.1 µM (inactive). The GI50 with NCI-H522 was 22.2 µM (inactive); in the assay with MOLT-4 it was 21.6 µM (inactive); in the assay on OVCAR-8, 17.1 µM (inactive); in the assay on HCC 2998, 20.7 µM (inactive); in the assay on A549, 32.8 µM (inactive); in the assay with DU-145, 30 µM (inactive). The figures for the GI50 with OVCAR-3 and with LOX IMVI were 15.4 µM (inactive) and 16.1 µM (inactive), respectively.
